Results on 30 compounds are retold here after patent publication US11173145B2, “Compounds useful as inhibitors of indoleamine 2,3-dioxygenase and/or tryptophan dioxygenase” (Board of Regents, The University of Texas System, priority 2017, dated 2021).

pIC50: −log10 of the molar value. A value given as a limit tells only on which side of the number the result lay.

The target in this assay is T1, IDO1 (Homo sapiens, UniProt P14902).
T1 construct: endogenous in cells; host or cells: HeLa cells (ATCC), IFNgamma-induced
T1 sequence (P14902 whole entry): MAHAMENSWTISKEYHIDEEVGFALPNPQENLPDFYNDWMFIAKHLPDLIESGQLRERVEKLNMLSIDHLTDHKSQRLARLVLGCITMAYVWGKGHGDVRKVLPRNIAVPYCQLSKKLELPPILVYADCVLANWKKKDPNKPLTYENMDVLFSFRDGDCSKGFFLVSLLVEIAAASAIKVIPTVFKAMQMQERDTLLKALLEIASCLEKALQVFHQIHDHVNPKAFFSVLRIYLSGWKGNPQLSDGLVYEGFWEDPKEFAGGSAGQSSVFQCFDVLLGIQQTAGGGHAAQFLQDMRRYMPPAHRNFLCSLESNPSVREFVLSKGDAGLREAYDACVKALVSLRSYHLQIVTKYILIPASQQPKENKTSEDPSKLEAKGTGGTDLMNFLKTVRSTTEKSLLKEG
The assay can be described thus: IDO1 cell-based assay (HeLa cells, IFNgamma-induced, N-formylkynurenine/L-tryptophan by RFMS). The settings on record: 10 ng/mL IFNgamma, 24 hours. As for the experimental part: HeLa cells were obtained from the American Type Culture Collection (ATCC) and maintained in DMEM media containing 10% FBS. Cells (7,000/well) were seeded onto a 384 well plate in 50 μL of media and incubated at 37° C., 5% CO2 overnight. Cell media was aspirated, fresh media containing 10 ng/mL IFNgamma was added, and cells were incubated in absence or presence of various concentrations of test compound (final 0.5% DMSO) for 24 hours. Aliquots of the cell conditioned media were removed from the cell plate, and mixed with an equal volume of 200 mM ZnSO4 to precipitate media containing proteins. Two volumes of acetonitrile were added, mixed, and samples were then centrifuged at 2250G for 20 minutes at 4° C. Aliquots of the supernatant were diluted 1:10 in 0.1% formic acid containing 3 μM of deuterated Tryptophan as an internal standard.
Samples were analyzed via RFMS to quantify N-Formyl Kynurenine (AUC) and L-tryptophan (AUC). A C18 cartridge was used with mobile phases of 0.1% Formic Acid and 80% ACN/0.1% Formic Acid under isocratic conditions. Dose-response curves were analyzed using IC50 regression curve fitting (GeneData Screener). […] Cell viability was also assessed using the Cell Titer Glo Kit (Promega) following manufacturer recommendation.

Broadly, the pIC50 is the negative decadic logarithm of the IC50, by convention in mol/L. Read a high pIC50 as a low IC50.

`CCC(NC(=O)c1ccc(Cl)cc1)[C@H]1[C@@H]2C[C@@H](Oc3ncncc3F)C[C@@H]21` (stereo partly drawn) [Compound 54, 4-chloro-N-(1-((1R,3s,5S,6r)-3-((5-fluoropyrimidin-4-yl)oxy)bicyclo[3.1.0]hexan-6-yl)propyl)benzamide] gave a pIC50 of over 6.70. With `CCC(NC(=O)c1ccc(Cl)cc1)[C@H]1[C@@H]2C[C@@H](Oc3ccc4c(Cl)ccnc4c3)C[C@@H]21` (stereo partly drawn) [Compound 57, 4-chloro-N-(1-((1R,3s,5S,6r)-3-((4-chloroquinolin-7-yl)oxy)bicyclo[3.1.0]hexan-6-yl)propyl)benzamide], the pIC50 is 5.70 to 6.70.

`CCC(NC(=O)c1ccc(Cl)cc1)[C@H]1[C@@H]2C[C@@H](Oc3cncc(F)c3)C[C@@H]21` (stereo partly drawn) [Compound 58, 4-chloro-N-(1-((1R,3s,5S,6r)-3-((5-fluoropyridin-3-yl)oxy)bicyclo[3.1.0]hexan-6-yl)propyl)benzamide]: the pIC50 was over 6.70. The compound `CCC(NC(=O)c1ccc(Cl)cc1)[C@H]1[C@@H]2C[C@@H](Oc3ncnc4ccccc34)C[C@@H]21` (stereo partly drawn) [Compound 59, 4-chloro-N-(1-((1R,3s,5S,6r)-3-(quinazolin-4-yloxy)bicyclo[3.1.0]hexan-6-yl)propyl)benzamide] had a pIC50 of over 6.70. To `CCC(NC(=O)c1ccc(Cl)cc1)[C@H]1[C@@H]2C[C@@H](Oc3cccnc3Cl)C[C@@H]21` (stereo partly drawn) [Compound 60, 4-chloro-N-(1-((1R,3s,5S,6r)-3-((2-chloropyridin-3-yl)oxy)bicyclo[3.1.0]hexan-6-yl)propyl)benzamide] belongs over 6.70.

In the case of `O=C(Cc1ccc(Cl)cc1)N[C@H]1[C@@H]2C[C@@H](Oc3ncnc4ccc(F)cc34)C[C@@H]21` [Compound 61, 2-(4-chlorophenyl)-N-((1R,3s,5S,6r)-3-((6-fluoroquinazolin-4-yl)oxy)bicyclo[3.1.0]hexan-6-yl)acetamide], the pIC50 is over 6.70. With `O=C(Cc1ccc(Cl)cc1)N[C@H]1[C@@H]2C[C@@H](n3cnc4ccc(F)cc4c3=O)C[C@@H]21` [Compound 62, 2-(4-chlorophenyl)-N-((1R,3s,5S,6r)-3-(6-fluoro-4-oxoquinazolin-3(4H)-yl)bicyclo[3.1.0]hexan-6-yl)acetamide], the negative logarithm of the IC50 (pIC50) was 5.30 to 5.70. `CC(NC(=O)c1ccc(Cl)cc1)[C@H]1[C@@H]2C[C@@H](n3cnc4ccc(F)cc4c3=O)C[C@@H]21` (stereo partly drawn) [Compound 63, 4-chloro-N-(1-((1R,3s,5S,6r)-3-(6-fluoro-4-oxoquinazolin-3(4H)-yl)bicyclo[3.1.0]hexan-6-yl)ethyl)benzamide] had a negative logarithm of the IC50 (pIC50) of over 6.70. `CC(NC(=O)c1ccc(Cl)cc1)[C@H]1[C@@H]2C[C@@H](Oc3ncnc4ccc(F)cc34)C[C@@H]21` (stereo partly drawn) [Compound 64, 4-chloro-N-(1-((1R,3s,5S,6r)-3-((6-fluoroquinazolin-4-yl)oxy)bicyclo[3.1.0]hexan-6-yl)ethyl)benzamide] gave a pIC50 of over 6.70. The same measure for `O=C(NC[C@@H]1[C@H]2C[C@H](n3cnc4ccc(F)cc4c3=O)C[C@@H]12)c1ccc(Cl)cc1` [Compound 65, 4-chloro-N-(((1R,3s,5S,6r)-3-(6-fluoro-4-oxoquinazolin-3(4H)-yl)bicyclo[3.1.0]hexan-6-yl)methyl)benzamide]: 5.70 to 6.70; for `CCC(NC(=O)c1ccc(C#N)cc1)[C@H]1[C@@H]2C[C@@H](Oc3ncnc4ccc(F)cc34)C[C@@H]21` (stereo partly drawn) [Compound 66, 4-cyano-N-(1-((1R,3s,5S,6r)-3-((6-fluoroquinazolin-4-yl)oxy)bicyclo[3.1.0]hexan-6-yl)propyl)benzamide]: over 6.70. As for `CCC(NC(=O)c1ccc(C#N)cc1)[C@H]1[C@@H]2C[C@@H](n3cnc4ccc(F)cc4c3=O)C[C@@H]21` (stereo partly drawn) [Compound 67, 4-cyano-N-(1-((1R,3s,5S,6r)-3-(6-fluoro-4-oxoquinazolin-3(4H)-yl)bicyclo[3.1.0]hexan-6-yl)propyl)benzamide], the pIC50 was over 6.70. `CCC(NC(=O)c1cnc(OC)nc1)[C@H]1[C@@H]2C[C@@H](Oc3ncnc4ccc(F)cc34)C[C@@H]21` (stereo partly drawn) [Compound 68, N-(1-((1R,3s,5S,6r)-3-((6-fluoroquinazolin-4-yl)oxy)bicyclo[3.1.0]hexan-6-yl)propyl)-2-methoxypyrimidine-5-carboxamide] had a pIC50 of 5.30 to 5.70. The same measure for `CCC(NC(=O)c1ccc2c(c1)OC(F)(F)O2)C1C2CC(Oc3ncnc4ccc(F)cc34)CC21` [Compound 69, 2,2-difluoro-N-(1-((1R,3s,5S,6r)-3-((6-fluoroquinazolin-4-yl)oxy)bicyclo[3.1.0]hexan-6-yl)propyl)benzo[d][1,3]dioxole-5-carboxamide]: over 6.70; for `CC(NC(=O)c1ccc(Cl)cc1)[C@H]1[C@@H]2C[C@@H](Oc3ncnc4cc(F)ccc34)C[C@@H]21` (stereo partly drawn) [Compound 70, 4-chloro-N-(1-((1R,3s,5S,6r)-3-((7-fluoroquinazolin-4-yl)oxy)bicyclo[3.1.0]hexan-6-yl)ethyl)benzamide]: over 6.70; for `Cc1cccnc1O[C@@H]1C[C@@H]2[C@H](C1)[C@H]2C(C)NC(=O)c1ccc(Cl)cc1` (stereo partly drawn) [Compound 71, 4-chloro-N-(1-((1R,3s,5S,6r)-3-((3-methylpyridin-2-yl)oxy)bicyclo[3.1.0]hexan-6-yl)ethyl)benzamide]: over 6.70.

`CCC(NC(=O)c1ccc(Cl)cc1)C1C2CC(Oc3nncc4ccccc34)CC21` [Compound 72, 4-chloro-N-(1-((1R,3s,5S,6r)-3-(phthalazin-1-yloxy)bicyclo[3.1.0]hexan-6-yl)propyl)benzamide] had a pIC50 of over 6.70.

Consider `CCC(NC(=O)c1ccc(Cl)cc1)[C@H]1[C@@H]2C[C@@H](N3CCOCC3)C[C@@H]21` (stereo partly drawn) [Compound 73, 4-chloro-N-(1-((1R,3s,5S,6r)-3-morpholinobicyclo[3.1.0]hexan-6-yl)propyl)benzamide], for which the negative logarithm of the IC50 (pIC50) is 5.30 to 5.70. Compound `CCC(NC(=O)c1ccc(OC)nc1)[C@H]1[C@@H]2C[C@@H](n3cnc4ccc(F)cc4c3=O)C[C@@H]21` (stereo partly drawn) [Compound 74, N-(1-((1R,3s,5S,6r)-3-(6-fluoro-4-oxoquinazolin-3(4H)-yl)bicyclo[3.1.0]hexan-6-yl)propyl)-6-methoxynicotinamide] showed a pIC50 of 5.70 to 6.70. For the compound `CCC(NC(=O)c1ccc(Cl)cn1)C1C2CC(n3cnc4ccc(F)cc4c3=O)CC21` [Compound 75, 5-chloro-N-(1-((1R,3s,5S,6r)-3-(6-fluoro-4-oxoquinazolin-3(4H)-yl)bicyclo[3.1.0]hexan-6-yl)propyl)picolinamide], the pIC50 was over 6.70.

On to `CCC(NC(=O)c1ccc(C#N)cn1)C1C2CC(n3cnc4ccc(F)cc4c3=O)CC21` [Compound 76, 5-cyano-N-(1-((1R,3s,5S,6r)-3-(6-fluoro-4-oxoquinazolin-3(4H)-yl)bicyclo[3.1.0]hexan-6-yl)propyl)picolinamide], for which the pIC50 was 5.70 to 6.70.

For the compound `CCC(NC(=O)c1ccc(Cl)cn1)C1[C@H]2CC(Oc3cnnc4ccccc34)C[C@@H]12` (stereo partly drawn) [Compound 77, 5-chloro-N-(1-((1R,5S)-3-(cinnolin-4-yloxy)bicyclo[3.1.0]hexan-6-yl)propyl)picolinamide], the pIC50 is 5.70 to 6.70.

`CCC(NC(=O)c1ccc(OC)nc1)C1C2CC(Oc3ncnc4ccc(F)cc34)CC21` [Compound 78, N-(1-((1R,3s,5S,6r)-3-((6-fluoroquinazolin-4-yl)oxy)bicyclo[3.1.0]hexan-6-yl)propyl)-6-methoxynicotinamide] showed a pIC50 of over 6.70. To `O=C(Cc1ccc(Cl)cc1)NC1[C@H]2CC(Oc3cnnc4ccccc34)C[C@@H]12` (stereo partly drawn) [Compound 79, 2-(4-chlorophenyl)-N-((1R,3s,5S,6r)-3-(cinnolin-4-yloxy)bicyclo[3.1.0]hexan-6-yl)acetamide] belongs 5.70 to 6.70. As for `CCC(NC(=O)c1ccc(C#N)cc1)[C@H]1[C@@H]2C[C@@H](Oc3cnnc4ccccc34)C[C@@H]21` (stereo partly drawn) [Compound 80, N-(1-((1R,3s,5S,6r)-3-(cinnolin-4-yloxy)bicyclo[3.1.0]hexan-6-yl)propyl)-4-cyanobenzamide], the pIC50 is over 6.70. The same measure for `CCC(NC(=O)c1ccc(Cl)cc1)[C@H]1[C@@H]2C[C@@H](n3cncn3)C[C@@H]21` (stereo partly drawn) [Compound 81, N-(1-((1R,3s,5S,6r)-3-(1H-1,2,4-triazol-1-yl)bicyclo[3.1.0]hexan-6-yl)propyl)-4-chlorobenzamide]: 5.70 to 6.70; for `CCC(NC(=O)c1ccc(C#N)cn1)C1C2CC(Oc3cnnc4ccccc34)CC21` [Compound 82, N-(1-((1R,3s,5S,6r)-3-(cinnolin-4-yloxy)bicyclo[3.1.0]hexan-6-yl)propyl)-5-cyanopicolinamide]: 5.70 to 6.70; for `CCC(NC(=O)c1ccc(C#N)cn1)[C@H]1[C@@H]2C[C@@H](n3ncc(=O)c4ccccc43)C[C@@H]21` (stereo partly drawn) [Compound 83, 5-cyano-N-(1-((1R,3s,5S,6r)-3-(4-oxocinnolin-1(4H)-yl)bicyclo[3.1.0]hexan-6-yl)propyl)picolinamide]: 5.70 to 6.70. With `CCOC(=O)CC(NC(=O)c1ccc(Cl)cc1)[C@H]1[C@@H]2C[C@@H](Oc3cnnc4ccccc34)C[C@@H]21` (stereo partly drawn) [Compound 84, ethyl 3-(4-chlorobenzamido)-3-((1R,3s,5S,6r)-3-(cinnolin-4-yloxy)bicyclo[3.1.0]hexan-6-yl)propanoate], the pIC50 was over 6.70. Compound `O=C(Cc1ccc(Cl)cc1)N[C@H]1[C@@H]2C[C@@H](n3ncc(=O)c4ccccc43)C[C@@H]21` [Compound 85, 2-(4-chlorophenyl)-N-((1R,3s,5S,6r)-3-(4-oxocinnolin-1(4H)-yl)bicyclo[3.1.0]hexan-6-yl)acetamide] had a pIC50 of under 5.30.
